Measured values published in US9265771B2, “Method for treating Lyme disease” (Zoetis Services LLC, priority 2012, dated 2016).

How the values were obtained:
Type in all cases: in vivo, beagle dogs
B. burgdorferi [1] = test: Study B: QC6 ELISA in tick-infected dogs; conditions: 8 dogs/group
From the text: (§1) Three outer surface proteins (Osp) on B. burgdorferi are important for diagnosis and prevention, and are expressed by the organism in response to its local environment. […] OspF is another surface protein that is generally observed in late-stage disease. The C in […] refers to a 25-amino acid, C6 peptide in the sixth invariable region of an outer membrane lipoprotein (VIsE). Antibody against C6 is highly accurate as a serologic diagnosis of Lyme disease independent of a subject's (e.g., canine) vaccination status. Further, the generation of C6 antibodies implies an active infection with viable spirochetes. Serological methods for detecting B. burgdorfer/Lyme disease were conducted using the IDEXX qualitative SNAP-4Dx ELISA and the Quantitative C6 (Quant C6 or QC6) diagnostic kits, which are enzyme linked immunosorbent assays against the previously described 25-amino-acid C6 peptide. QC6 ELISA data, units/mL, are useful for guidance in initiating and evaluating response to therapy (See Levy S A, O'Connor T P, Hanscom J L, Shields P, et al. Quantitative measurement of a C6 antibody following antibiotic treatment of Borrelia burgdorferi antibody-positive, nonclinical dogs. Clin Vacc Immunol 2008; 15(1):115-119 and Littman M P, Goldstein R E, Labato M A, et al. ACVIM Small Animal Concensus Statement on Lyme Disease in Dogs: Diagnosis, Treatment and Prevention. J Vet Intern Med 2006; 20: 422-434).
(§2) Thirty-two (18 male and 14 female) beagle dogs were sero-negative for Borrelia burgdorferi, not vaccinated with any Borrelia spp vaccines, and acclimated at the study facility for seven days. The study was conducted under National Research Council guidelines (1996). […] Field-caught Ixodes from the northeast USA were placed on the dogs without containment chambers for 10 days; after ticks fed to repletion, dogs were treated with two applications of an approved topical acaricide with a 30-day interval between applications.
(§3) Forty days post-challenge, and prior to antibiotic treatments, blood was collected from each dog as were two skin biopsy punch samples near tick attachment sites. Blood was collected approximately monthly post-treatment. Skin biopsies were taken near the tick attachment site on Days 48/49, 118, 146, 180, and 315. Serum antibodies to Borrelia were assayed using the IDEXX SNAP-4Dx and QC6 ELISA. In cooperation with Cornell University, serum samples were analyzed using fluorescent-bead-based multiplex assays detecting antibodies against B. burgdorferi outer surface proteins OspA, OspC, and OspF. Data were expressed as median fluorescent intensities (MFI), and shown to be specific and sensitive to provide interpretative guidelines regarding infection. The skin biopsies were collected for a polymerase chain reaction (PCR; FlaB) assay and cultured for spirochete detection. At the end of the study, blood and skin biopsies were collected and synovial tissue from the joints were harvested at necropsy.
(§4) On Day 75 and Day 89 Convenia was administered to the eight dogs in T04 (8 mg/kg bodyweight; subcutaneous injection). The other treated groups received their respective regimens daily and orally for 30 days from Days 75 to 104. […] Dogs in T01 served as infected, untreated, controls. Inter-treatment comparisons to evaluate antibiotic efficacy included clinical signs, serology, culture results and pathology.

B. burgdorferi [2] = test: Study B: SNAP-4Dx ELISA in tick-infected dogs; conditions: N = 8/group
From the text: as §1, §2, §3, §4

[3] = test system: B. burgdorferi outer surface protein OspF; test: Study B: fluorescent-bead-based multiplex assay, antibodies against OspF; conditions: for Multiplex Assay OspF: No. Dogs > Positive Threshold (# dogs > 1500): 8 dogs/group
Protocol: as §2
as §3, with “Data were expressed as median fluorescent intensities (MFI), and shown to be specific and sensitive to provide interpretative guidelines regarding infection.” left out
On Day 75 and Day 89 Convenia was administered to the eight dogs in T04 (8 mg/kg bodyweight; subcutaneous injection). The other treated groups received their respective regimens daily and orally for 30 days from Days 75 to 104. […] Dogs in T01 served as infected, untreated, controls.

B. burgdorferi [4] = test: Study B: microscopic examination of joints and skin at necropsy; conditions: for Number of Joints with Changes as Described for Lyme disease: N = 8
Protocol: as §2, §3, §4
At necropsy ten joints were harvested per each dog, formalin-fixed, stained and examined microscopically. Joints included the carpus, elbow, shoulder, stifle and tarsus on both the right and left limbs. Further, a section of skin near tick attachment sites was evaluated from each dog. There were two dogs in the Convenia group (25%) with tissues showing changes as described for Lyme disease, compared to seven controls (87.5%) and three (37.5%) to four (50.0%) dogs in the other antibiotic-treated groups (Table 7). […] The Convenia group had the lowest incidence of joint changes with six affected of 80.

[5] = joints, skin, 8 dogs/group, necropsy

Structure (SMILES): C[C@H]1c2cccc(O)c2C(=O)C2=C(O)[C@]3(O)C(=O)C(C(N)=O)=C(O)[C@@H](N(C)C)[C@@H]3[C@@H](O)[C@@H]21 [doxycycline]
- Dogs Sero-converted to B. burgdorferi per QC6 ELISA (≧30 U/mL), (%) (B. burgdorferi [1]; Day 48 (pre-treatment)): 75.0%
- Number of Dogs Sero-converted to B. burgdorferi per QC6 ELISA (≧30 U/mL), No. (B. burgdorferi [1]; Day 48 (pre-treatment)): 6
- Dogs Sero-converted to B. burgdorferi per QC6 ELISA (≧30 U/mL), (%) (B. burgdorferi [1]; Day 111): 62.5%
- Number of Dogs Sero-converted to B. burgdorferi per QC6 ELISA (≧30 U/mL), No. (B. burgdorferi [1]; Day 111): 5
- Dogs Sero-converted to B. burgdorferi per QC6 ELISA (≧30 U/mL), (%) (B. burgdorferi [1]; Day 145): 0.0%
- Number of Dogs Sero-converted to B. burgdorferi per QC6 ELISA (≧30 U/mL), No. (B. burgdorferi [1]; Day 145): 0
- Dogs Sero-converted to B. burgdorferi per QC6 ELISA (≧30 U/mL), (%) (B. burgdorferi [1]; Day 179): 0.0%
- Number of Dogs Sero-converted to B. burgdorferi per QC6 ELISA (≧30 U/mL), No. (B. burgdorferi [1]; Day 179): 0
- Dogs Sero-converted to B. burgdorferi per QC6 ELISA (≧30 U/mL), (%) (B. burgdorferi [1]; Day 221): 0.0%
- Number of Dogs Sero-converted to B. burgdorferi per QC6 ELISA (≧30 U/mL), No. (B. burgdorferi [1]; Day 221): 0
- Dogs Sero-converted to B. burgdorferi per QC6 ELISA (≧30 U/mL), (%) (B. burgdorferi [1]; Day 251): 0.0%
- Number of Dogs Sero-converted to B. burgdorferi per QC6 ELISA (≧30 U/mL), No. (B. burgdorferi [1]; Day 251): 0
- Dogs Sero-converted to B. burgdorferi per QC6 ELISA (≧30 U/mL), (%) (B. burgdorferi [1]; Day 281): 0.0%
- Number of Dogs Sero-converted to B. burgdorferi per QC6 ELISA (≧30 U/mL), No. (B. burgdorferi [1]; Day 281): 0
- Dogs Sero-converted to B. burgdorferi per QC6 ELISA (≧30 U/mL), (%) (B. burgdorferi [1]; Day 314): 0.0%
- Number of Dogs Sero-converted to B. burgdorferi per QC6 ELISA (≧30 U/mL), No. (B. burgdorferi [1]; Day 314): 0
- SNAP-4Dx Positives, Number of Dogs (B. burgdorferi [2]; Day 48 (pre-treatment; antibiotics from Day 75)): 6
- SNAP-4Dx Positives, Number of Dogs (B. burgdorferi [2]; Day 111): 7
- SNAP-4Dx Positives, Number of Dogs (B. burgdorferi [2]; Day 145): 6
- SNAP-4Dx Positives, Number of Dogs (B. burgdorferi [2]; Day 179): 1
- SNAP-4Dx Positives, Number of Dogs (B. burgdorferi [2]; Day 221): 0
- SNAP-4Dx Positives, Number of Dogs (B. burgdorferi [2]; Day 251): 0
- SNAP-4Dx Positives, Number of Dogs (B. burgdorferi [2]; Day 281): 0
- SNAP-4Dx Positives, Number of Dogs (B. burgdorferi [2]; Day 315): 0
- SNAP-4Dx Positives, Number of Dogs (B. burgdorferi [2]; Day −15 (pre-infection)): 0
- Multiplex Assay OspF: MFI Mean ([3]; Day 48 (pre-treatment)): 943.38 MFI
- Multiplex Assay OspF: No. Dogs > Positive Threshold (# dogs > 1500) ([3]; Day 48 (pre-treatment)): 1
- Multiplex Assay OspF: MFI Mean ([3]; Day 111): 1174.38 MFI
- Multiplex Assay OspF: No. Dogs > Positive Threshold (# dogs > 1500) ([3]; Day 111): 1
- Multiplex Assay OspF: MFI Mean ([3]; Day 145): 490.63 MFI
- Multiplex Assay OspF: No. Dogs > Positive Threshold (# dogs > 1500) ([3]; Day 145): 0
- Multiplex Assay OspF: MFI Mean ([3]; Day 179): 395.88 MFI
- Multiplex Assay OspF: No. Dogs > Positive Threshold (# dogs > 1500) ([3]; Day 179): 0
- Multiplex Assay OspF: MFI Mean ([3]; Day 221): 334.75 MFI
- Multiplex Assay OspF: No. Dogs > Positive Threshold (# dogs > 1500) ([3]; Day 221): 0
- Multiplex Assay OspF: MFI Mean ([3]; Day 251): 340.88 MFI
- Multiplex Assay OspF: No. Dogs > Positive Threshold (# dogs > 1500) ([3]; Day 251): 0
- Multiplex Assay OspF: MFI Mean ([3]; Day 281): 343.63 MFI
- Multiplex Assay OspF: No. Dogs > Positive Threshold (# dogs > 1500) ([3]; Day 281): 0
- Multiplex Assay OspF: MFI Mean ([3]; Day 314): 353.25 MFI
- Multiplex Assay OspF: No. Dogs > Positive Threshold (# dogs > 1500) ([3]; Day 314): 0
- Multiplex Assay OspF: MFI Mean ([3]; Day −15 (pre-infection)): 113.50 MFI
- Multiplex Assay OspF: No. Dogs > Positive Threshold (# dogs > 1500) ([3]; Day −15 (pre-infection)): 0
- Number of Joints with Changes as Described for Lyme disease, Cumulative (B. burgdorferi [4]; 80 total/group): 11
- Number of Joints with Changes as Described for Lyme disease (B. burgdorferi [4]; Carpus L): 1
- Number of Joints with Changes as Described for Lyme disease (B. burgdorferi [4]; Carpus R): 2
- Number of Joints with Changes as Described for Lyme disease (B. burgdorferi [4]; Elbow L): 1
- Number of Joints with Changes as Described for Lyme disease (B. burgdorferi [4]; Elbow R): 1
- Number of Joints with Changes as Described for Lyme disease (B. burgdorferi [4]; Shoulder L): 1
- Number of Joints with Changes as Described for Lyme disease (B. burgdorferi [4]; Shoulder R): 0
- Number of Joints with Changes as Described for Lyme disease (B. burgdorferi [4]; Stifle L): 1
- Number of Joints with Changes as Described for Lyme disease (B. burgdorferi [4]; Stifle R): 2
- Number of Joints with Changes as Described for Lyme disease (B. burgdorferi [4]; Tarsus L): 2
- Number of Joints with Changes as Described for Lyme disease (B. burgdorferi [4]; Tarsus R): 0
- No Tissue Changes, # Dogs (B. burgdorferi [4]; [5]): 5
- No Tissue Changes, % (B. burgdorferi [4]; [5]): 62.5%
- Tissue Changes Described for Lyme Disease, # Dogs (B. burgdorferi [4]; [5]): 3
- Tissue Changes Described for Lyme Disease, % (B. burgdorferi [4]; [5]): 37.5%
